Article PMC5218480 (PLoS ONE, 2017)

Test system: MV-4-11 cells
Assay: Gene expression microarray analysis (Affymetrix PrimeView) and GSEA
Format: cell-based, human
Set-up: RFU PODN (11730768_x_at) / Fold change /veh PODN (11730768_x_at) / RFU LINC00158 (11744669_a_at) / Fold change /veh LINC00158 (11744669_a_at) / RFU DUSP10 (11751237_a_at) / Fold change /veh DUSP10 (11751237_a_at) / RFU ID3 (11757404_x_at) / Fold change /veh ID3 (11757404_x_at) / RFU PLEKHG5 (11737974_s_at) / Fold change /veh PLEKHG5 (11737974_s_at) / RFU LRRC4B (11730491_at) / Fold change /veh LRRC4B (11730491_at) / RFU GIMAP4 (11747438_a_at) / Fold change /veh GIMAP4 (11747438_a_at) / RFU KRT8 (11758183_x_at) / Fold change /veh KRT8 (11758183_x_at) / RFU CNN1 (11734310_a_at) / Fold change /veh CNN1 (11734310_a_at) / RFU VPS37D (11726825_at) / Fold change /veh VPS37D (11726825_at) / RFU C10orf10 (11716522_x_at) / Fold change /veh C10orf10 (11716522_x_at) / RFU KIR2DL2 /// KIR2DL4 /// KIR2DL5A /// KIR2DL5B /// KIR2DS1 /// KIR2DS2 /// KIR2DS3 /// KIR2DS4 /// KIR3DL3 /// KIR3DL3 /// KIR3DS1 (11738374_at) / Fold change /veh KIR2DL2 /// KIR2DL4 /// KIR2DL5A /// KIR2DL5B /// KIR2DS1 /// KIR2DS2 /// KIR2DS3 /// KIR2DS4 /// KIR3DL3 /// KIR3DL3 /// KIR3DS1 (11738374_at) / RFU C1QL1 (11718748_at) / Fold change /veh C1QL1 (11718748_at) / RFU TMPRSS4 (11747572_a_at) / Fold change /veh TMPRSS4 (11747572_a_at) / RFU HAMP (11756126_x_at) / Fold change /veh HAMP (11756126_x_at) / RFU RNFT2 (11725882_a_at) / Fold change /veh RNFT2 (11725882_a_at) / RFU NR4A2 (11747474_a_at) / Fold change /veh NR4A2 (11747474_a_at) / RFU ABCC12 (11746883_a_at) / Fold change /veh ABCC12 (11746883_a_at) / RFU TMEM136 (11760407_x_at) / Fold change /veh TMEM136 (11760407_x_at) / RFU CLDN22 /// WWC2 (11732394_at) / Fold change /veh CLDN22 /// WWC2 (11732394_at) / RFU HLA-DPB1 (11760878_x_at) / Fold change /veh HLA-DPB1 (11760878_x_at) / RFU SPINT1 (11716480_a_at) / Fold change /veh SPINT1 (11716480_a_at) / RFU GAP43 (11754022_s_at) / Fold change /veh GAP43 (11754022_s_at) / RFU A4GNT (11735810_at) / Fold change /veh A4GNT (11735810_at) / RFU PRB3 (11715151_x_at) / Fold change /veh PRB3 (11715151_x_at) / RFU TUBB4B (11761932_at) / Fold change /veh TUBB4B (11761932_at) / RFU CAPN14 (11732068_a_at) / Fold change /veh CAPN14 (11732068_a_at) / RFU TMCC2 (11721928_a_at) / Fold change /veh TMCC2 (11721928_a_at) / RFU IRGQ (11745062_a_at) / Fold change /veh IRGQ (11745062_a_at) / RFU FAM174B (11720279_a_at) / Fold change /veh FAM174B (11720279_a_at) / RFU TMPRSS4 (11748680_a_at) / Fold change /veh TMPRSS4 (11748680_a_at) / RFU FAM212B (11763350_a_at) / Fold change /veh FAM212B (11763350_a_at) / RFU PLEKHG5 (11743358_a_at) / Fold change /veh PLEKHG5 (11743358_a_at) / RFU ZSCAN30 (11745921_a_at) / Fold change /veh ZSCAN30 (11745921_a_at) / RFU CMKLR1 (11741424_a_at) / Fold change /veh CMKLR1 (11741424_a_at) / RFU LOC101060620 /// MAPK8IP1 (11723275_at) / Fold change /veh LOC101060620 /// MAPK8IP1 (11723275_at) / RFU SPTSSB (11747773_x_at) / Fold change /veh SPTSSB (11747773_x_at) / RFU PRSS12 (11739890_at) / Fold change /veh PRSS12 (11739890_at) / RFU BIN1 (11741810_x_at) / Fold change /veh BIN1 (11741810_x_at) / RFU WNT11 (11732464_a_at) / Fold change /veh WNT11 (11732464_a_at) / RFU C10orf10 (11716521_a_at) / Fold change /veh C10orf10 (11716521_a_at) / RFU C5orf56 (11738089_at) / Fold change /veh C5orf56 (11738089_at) / RFU CYB561 (11721691_x_at) / Fold change /veh CYB561 (11721691_x_at) / RFU ANKRD19P (11752326_a_at) / Fold change /veh ANKRD19P (11752326_a_at) / RFU OR2T12 /// OR2T33 /// OR2T8 (11738714_s_at) / Fold change /veh OR2T12 /// OR2T33 /// OR2T8 (11738714_s_at) / RFU VCAN (11748164_a_at) / Fold change /veh VCAN (11748164_a_at) / RFU JSRP1 (11732532_at) / Fold change /veh JSRP1 (11732532_at) / RFU KRTAP10-11 (11738290_x_at) / Fold change /veh KRTAP10-11 (11738290_x_at) / RFU MYO3A (11730013_a_at) / Fold change /veh MYO3A (11730013_a_at) / RFU EBF3 (11725865_a_at) / Fold change /veh EBF3 (11725865_a_at) / RFU CAMK2N1 (11719241_x_at) / Fold change /veh CAMK2N1 (11719241_x_at) / RFU C5orf56 (11738088_a_at) / Fold change /veh C5orf56 (11738088_a_at) / RFU OLFML3 (11715873_a_at) / Fold change /veh OLFML3 (11715873_a_at) / RFU LOC100653217 /// NTM (11731650_a_at) / Fold change /veh LOC100653217 /// NTM (11731650_a_at) / RFU MAPK11 (11762145_a_at) / Fold change /veh MAPK11 (11762145_a_at) / RFU FIZ1 (11724087_x_at) / Fold change /veh FIZ1 (11724087_x_at) / RFU OASL (11726364_x_at) / Fold change /veh OASL (11726364_x_at) / RFU SOX15 (11748057_x_at) / Fold change /veh SOX15 (11748057_x_at) / RFU CD79A (11719716_a_at) / Fold change /veh CD79A (11719716_a_at) / RFU HIST1H1D (11736915_at) / Fold change /veh HIST1H1D (11736915_at) / RFU CASKIN2 (11723855_a_at) / Fold change /veh CASKIN2 (11723855_a_at) / RFU LOC730098 (11760151_x_at) / Fold change /veh LOC730098 (11760151_x_at) / RFU OR4N2 (11742367_at) / Fold change /veh OR4N2 (11742367_at) / RFU PRRT2 (11749266_a_at) / Fold change /veh PRRT2 (11749266_a_at) / RFU SNX32 (11753110_a_at) / Fold change /veh SNX32 (11753110_a_at) / RFU CDHR5 (11726645_a_at) / Fold change /veh CDHR5 (11726645_a_at) / RFU RCAN1 (11760418_a_at) / Fold change /veh RCAN1 (11760418_a_at) / RFU FAM167A (11723789_a_at) / Fold change /veh FAM167A (11723789_a_at) / RFU FAM26E (11764081_at) / Fold change /veh FAM26E (11764081_at) / RFU ISYNA1 (11749810_s_at) / Fold change /veh ISYNA1 (11749810_s_at) / RFU ACY1 (11761880_at) / Fold change /veh ACY1 (11761880_at) / RFU 11764098_at / Fold change /veh 11764098_at / RFU SAMD14 (11745864_x_at) / Fold change /veh SAMD14 (11745864_x_at) / RFU NPB (11741838_a_at) / Fold change /veh NPB (11741838_a_at) / RFU TMPRSS6 (11731388_a_at) / Fold change /veh TMPRSS6 (11731388_a_at) / RFU KRTAP10-2 (11738614_at) / Fold change /veh KRTAP10-2 (11738614_at) / RFU ARHGAP8 /// PRR5-ARHGAP8 (11727945_x_at) / Fold change /veh ARHGAP8 /// PRR5-ARHGAP8 (11727945_x_at) / RFU KRTAP5-7 /// NADSYN1 (11734609_at) / Fold change /veh KRTAP5-7 /// NADSYN1 (11734609_at) / RFU RASL12 (11751679_a_at) / Fold change /veh RASL12 (11751679_a_at) / RFU CDKN2B (11736163_a_at) / Fold change /veh CDKN2B (11736163_a_at) / RFU PRF1 (11729649_at) / Fold change /veh PRF1 (11729649_at) / RFU, ZNF638 /// ZNF638-IT1 / Fold change vs veh, ZNF638 /// ZNF638-IT1 / RFU, PANK3 / Fold change vs veh, PANK3 / RFU, SH3YL1 / Fold change vs veh, SH3YL1 / RFU, ZEB2 / Fold change vs veh, ZEB2 / RFU, NRIP1 / Fold change vs veh, NRIP1 / RFU, PTTG1IP / Fold change vs veh, PTTG1IP / RFU, CAPN2 / Fold change vs veh, CAPN2 / RFU, MED14 / Fold change vs veh, MED14 / RFU, SNORA58 / Fold change vs veh, SNORA58 / RFU, C1orf63 / Fold change vs veh, C1orf63 / RFU, LRRFIP1 / Fold change vs veh, LRRFIP1 / RFU, NDUFAF7 / Fold change vs veh, NDUFAF7 / RFU, SLC12A2 / Fold change vs veh, SLC12A2 / RFU, IBTK / Fold change vs veh, IBTK / RFU, ESF1 / Fold change vs veh, ESF1 / Fold change vs veh, TMEM50B / RFU, TAOK1 / Fold change vs veh, TAOK1 / RFU, ACBD3 / Fold change vs veh, ACBD3 / RFU, TMA16 / Fold change vs veh, TMA16 / RFU, RWDD3 / Fold change vs veh, RWDD3 / RFU, BCAT1 / Fold change vs veh, BCAT1 / RFU, EDEM3 / Fold change vs veh, EDEM3 / RFU, TMEM33 / Fold change vs veh, TMEM33 / RFU, WDR75 / Fold change vs veh, WDR75 / RFU, AHCTF1 / Fold change vs veh, AHCTF1 / RFU, TFRC / Fold change vs veh, TFRC / RFU, ZDHHC17 / Fold change vs veh, ZDHHC17 / RFU, NOM1 / Fold change vs veh, NOM1 / RFU, ARL8B / Fold change vs veh, ARL8B / RFU, ZBTB11 / Fold change vs veh, ZBTB11 / RFU, TAMM41 / Fold change vs veh, TAMM41 / RFU, KIAA1704 /// LOC100996395 / Fold change vs veh, KIAA1704 /// LOC100996395 / RFU, ING1 / Fold change vs veh, ING1 / RFU, TRMT61B / Fold change vs veh, TRMT61B / RFU, FUBP3 / Fold change vs veh, FUBP3 / RFU, TP53 / Fold change vs veh, TP53 / RFU, TNKS2 / Fold change vs veh, TNKS2 / RFU, ZFP14 / Fold change vs veh, ZFP14 / RFU, ACTR2 / Fold change vs veh, ACTR2 / RFU, PPP3R1 / Fold change vs veh, PPP3R1 / RFU, PIK3R1 / Fold change vs veh, PIK3R1 / RFU, HNRNPA1 / Fold change vs veh, HNRNPA1 / RFU, RNF170 / Fold change vs veh, RNF170 / RFU, ZNF28 / Fold change vs veh, ZNF28 / RFU, RNGTT / Fold change vs veh, RNGTT / RFU, OGT / Fold change vs veh, OGT / RFU, BRD1 / Fold change vs veh, BRD1 / RFU, MARS / Fold change vs veh, MARS / RFU, ZNF655 / Fold change vs veh, ZNF655 / RFU, FAHD1 / Fold change vs veh, FAHD1 / RFU, BDP1 / Fold change vs veh, BDP1 / RFU, LRRCC1 / Fold change vs veh, LRRCC1 / RFU, ARID1A / Fold change vs veh, ARID1A / RFU, ZNF146 / Fold change vs veh, ZNF146 / RFU, ZNF330 / Fold change vs veh, ZNF330 / RFU, GPN3 / Fold change vs veh, GPN3 / RFU, C9orf123 / Fold change vs veh, C9orf123 / RFU, N4BP2L2 / Fold change vs veh, N4BP2L2 / RFU, ARFIP1 / Fold change vs veh, ARFIP1 / RFU, FAM179B / Fold change vs veh, FAM179B / RFU, BCL10 / Fold change vs veh, BCL10 / RFU, UHRF1BP1L / Fold change vs veh, UHRF1BP1L / RFU, BET1 / Fold change vs veh, BET1 / RFU, CNOT2 / Fold change vs veh, CNOT2 / RFU, ZNF268 / Fold change vs veh, ZNF268 / Fold change vs veh, ZNF507 / RFU, DGCR2 / Fold change vs veh, DGCR2 / RFU, WDSUB1 / Fold change vs veh, WDSUB1 / Fold change vs veh, HSP90B1 /// MIR3652 / RFU, ADSS / Fold change vs veh, ADSS / RFU, GK / Fold change vs veh, GK / RFU, ZNF148 / Fold change vs veh, ZNF148 / RFU, TAF9 / Fold change vs veh, TAF9 / RFU, SLC1A5 / Fold change vs veh, SLC1A5 / RFU, SLMO2 / Fold change vs veh, SLMO2 / RFU, ABCC4 / Fold change vs veh, ABCC4 / RFU, LOC101060439 /// RAP1B / Fold change vs veh, LOC101060439 /// RAP1B / RFU, RFX7 / Fold change vs veh, RFX7 / RFU, GTPBP10 / Fold change vs veh, GTPBP10 / RFU, CNEP1R1 / Fold change vs veh, CNEP1R1 / RFU, BIVM-ERCC5 /// ERCC5 / Fold change vs veh, BIVM-ERCC5 /// ERCC5 / RFU, ILF3 / Fold change vs veh, ILF3 / RFU 11762660_at / Fold change /veh 11762660_at / RFU VCAN (11757783_s_at) / Fold change /veh VCAN (11757783_s_at) / RFU DDX43 (11728927_at) / Fold change /veh DDX43 (11728927_at) / RFU KRT8 (11758188_x_at) / Fold change /veh KRT8 (11758188_x_at) / RFU NKD1 (11759106_at) / Fold change /veh NKD1 (11759106_at) / RFU SRD5A1 (11742802_a_at) / Fold change /veh SRD5A1 (11742802_a_at) / RFU TPSAB1 /// TPSB2 (11721975_s_at) / Fold change /veh TPSAB1 /// TPSB2 (11721975_s_at) / RFU GSTM3 (11746129_a_at) / Fold change /veh GSTM3 (11746129_a_at) / RFU IL23R (11737362_x_at) / Fold change /veh IL23R (11737362_x_at) / RFU TMEM51 (11727254_a_at) / Fold change /veh TMEM51 (11727254_a_at) / RFU PIWIL2 (11732686_x_at) / Fold change /veh PIWIL2 (11732686_x_at) / RFU ORM1 (11744905_x_at) / Fold change /veh ORM1 (11744905_x_at) / RFU CCDC152 (11743942_at) / Fold change /veh CCDC152 (11743942_at) / RFU ECM1 (11717891_a_at) / Fold change /veh ECM1 (11717891_a_at) / RFU IL23R (11748794_a_at) / Fold change /veh IL23R (11748794_a_at) / RFU TNFAIP8L3 (11732012_x_at) / Fold change /veh TNFAIP8L3 (11732012_x_at) / RFU MBOAT4 (11741988_at) / Fold change /veh MBOAT4 (11741988_at) / RFU 11764193_at / Fold change /veh 11764193_at / RFU TMEM53 (11763286_at) / Fold change /veh TMEM53 (11763286_at) / RFU MAGEB2 (11727129_at) / Fold change /veh MAGEB2 (11727129_at) / RFU TMEM200A (11744735_a_at) / Fold change /veh TMEM200A (11744735_a_at) / RFU CCDC152 (11751479_a_at) / Fold change /veh CCDC152 (11751479_a_at) / RFU FAM211A (11726209_a_at) / Fold change /veh FAM211A (11726209_a_at) / RFU RGS16 (11746705_a_at) / Fold change /veh RGS16 (11746705_a_at) / RFU VCAN (11755009_s_at) / Fold change /veh VCAN (11755009_s_at) / RFU RHOB (11743442_s_at) / Fold change /veh RHOB (11743442_s_at) / RFU RGS16 (11720943_a_at) / Fold change /veh RGS16 (11720943_a_at) / RFU RGS16 (11720944_at) / Fold change /veh RGS16 (11720944_at) / RFU, VPS4B / Fold change vs veh, VPS4B / RFU, CREB1 / Fold change vs veh, CREB1 / RFU, DNAJC13 / Fold change vs veh, DNAJC13 / RFU, GNAQ / Fold change vs veh, GNAQ / RFU, CDK5R1 / Fold change vs veh, CDK5R1 / RFU, ZRANB3 / Fold change vs veh, ZRANB3 / RFU, CUL4A / Fold change vs veh, CUL4A / RFU, CCNY / Fold change vs veh, CCNY / RFU, UFL1 / Fold change vs veh, UFL1 / RFU, COG3 / Fold change vs veh, COG3 / RFU, DIAPH2 / Fold change vs veh, DIAPH2 / RFU, SKA2 / Fold change vs veh, SKA2 / RFU, AFF3 / Fold change vs veh, AFF3 / RFU, LMF1 / Fold change vs veh, LMF1 / RFU, IPO11 / Fold change vs veh, IPO11 / RFU, DFFB / Fold change vs veh, DFFB / RFU, FOXP1 / Fold change vs veh, FOXP1 / RFU, CARD8 / Fold change vs veh, CARD8 / RFU, STRN3 / Fold change vs veh, STRN3 / RFU, ADK / Fold change vs veh, ADK / RFU, RASSF2 / Fold change vs veh, RASSF2 / RFU, WIPF1 / Fold change vs veh, WIPF1 / RFU, LARP1B / Fold change vs veh, LARP1B / RFU, RASA1 / Fold change vs veh, RASA1 / RFU, RB1 / Fold change vs veh, RB1 / RFU, PPFIA1 / Fold change vs veh, PPFIA1 / RFU, MAT2A / Fold change vs veh, MAT2A / RFU, CCT5 / Fold change vs veh, CCT5 / RFU, WDR92 / Fold change vs veh, WDR92 / RFU, CUX1 / Fold change vs veh, CUX1 / RFU, TTC7A / Fold change vs veh, TTC7A / RFU, TMEM135 / Fold change vs veh, TMEM135 / RFU, DEPTOR / Fold change vs veh, DEPTOR / RFU, CPM / Fold change vs veh, CPM / RFU, DNAJB6 / Fold change vs veh, DNAJB6 / RFU, CACNA2D3 / Fold change vs veh, CACNA2D3 / RFU, DTX4 / Fold change vs veh, DTX4 / RFU, TFCP2 / Fold change vs veh, TFCP2 / RFU, GMCL1 /// GMCL1P1 / Fold change vs veh, GMCL1 /// GMCL1P1 / RFU, AEBP2 / Fold change vs veh, AEBP2 / RFU, SNHG1 /// SNORD22 /// SNORD25 /// SNORD26 /// SNORD27 /// SNORD28 /// SNORD29 /// SNORD31 / Fold change vs veh, SNHG1 /// SNORD22 /// SNORD25 /// SNORD26 /// SNORD27 /// SNORD28 /// SNORD29 /// SNORD31 / Fold change (Aza/veh), C12orf56 (ProbeSet 11735607_a_at) / Fold change (ACY-1035/veh), C12orf56 (ProbeSet 11735607_a_at) / Fold change (Aza/veh), FGFR1OP (ProbeSet 11751329_s_at) / Fold change (ACY-1035/veh), FGFR1OP (ProbeSet 11751329_s_at) / Fold change (Aza/veh), VPS36 (ProbeSet 11739960_a_at) / Fold change (ACY-1035/veh), VPS36 (ProbeSet 11739960_a_at) / RFU SYPL1 (11715823_x_at) / Fold change /veh SYPL1 (11715823_x_at) / RFU IGFBP7 (11715501_s_at) / Fold change /veh IGFBP7 (11715501_s_at) / RFU REEP3 (11722064_at) / Fold change /veh REEP3 (11722064_at) / RFU IGLL1 (11728026_x_at) / Fold change /veh IGLL1 (11728026_x_at): dose or concentration left out as unconfirmed
Conditions: MV-4-11 cells, 48 hours

Nc1ncn([C@@H]2O[C@H](CO)[C@@H](O)[C@H]2O)c(=O)n1 [azacitidine]
RFU LINC00158 (11744669_a_at): 7.44 RFU
